Each block holds one molecule with its values, some of them ahead of it.
Experiment: ESI positive response factor (isotope-corrected peak area per molar concentration) in SFC/ESI/HRMS (area units per M); higher = higher ionization efficiency
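Further: standards in acetonitrile/water run in triplicate on a zwitterionic HILIC column, CO2–methanol gradient containing 20 mmol/L ammonium acetate, postcolumn makeup flow, Orbitrap full-scan detection.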

SMILES: COC(=O)NS(=O)(=O)c1ccc(N)cc1 [Asulam]
ESI positive response factor (0.035 µM): 1.24e+16 | ESI positive response factor (0.0875 µM): 1.31e+16 | ESI positive response factor (0.175 µM): 1.29e+16 | ESI positive response factor (0.35 µM): 1.46e+16 | ESI positive response factor (0.875 µM): 1.49e+16 | ESI positive response factor (1.75 µM): 1.43e+16

SMILES: CSc1nnc(C(C)(C)C)c(=O)n1N [Metribuzin]
ESI positive response factor (0.0122 µM): 2.83e+17 | ESI positive response factor (0.0244 µM): 2.15e+17 | ESI positive response factor (0.061 µM): 1.69e+17 | ESI positive response factor (0.122 µM): 1.54e+17 | ESI positive response factor (0.244 µM): 1.52e+17

SMILES: C[N+]1(C)[C@H]2CC(OC(=O)C(CO)c3ccccc3)C[C@H]1[C@H]1O[C@H]12 (some centres not stated) [Methyl scopolamine]
ESI positive response factor (0.0175 µM): 6.75e+17 | ESI positive response factor (0.035 µM): 8.31e+17 | ESI positive response factor (0.0875 µM): 7.49e+17

SMILES: CCOP(=O)(OCC)OC(=CCl)c1ccc(Cl)cc1Cl [Chlorfenvinphos]
ESI positive response factor (0.0175 µM): 2.81e+17 | ESI positive response factor (0.035 µM): 3.28e+17 | ESI positive response factor (0.0875 µM): 3.25e+17 | ESI positive response factor (0.175 µM): 2.98e+17 | ESI positive response factor (0.35 µM): 4.34e+17

SMILES: C[N+](C)(C)CCCl [Chlormequate]
ESI positive response factor (0.0175 µM): 1.55e+17 | ESI positive response factor (0.035 µM): 1.26e+17 | ESI positive response factor (0.0875 µM): 1.95e+17 | ESI positive response factor (0.175 µM): 1.76e+17 | ESI positive response factor (0.35 µM): 1.85e+17

SMILES: CCNc1nc(Cl)nc(NC(C)C)n1 [Atrazine]
ESI positive response factor (0.0175 µM): 1.04e+18 | ESI positive response factor (0.035 µM): 1.07e+18 | ESI positive response factor (0.0875 µM): 9.8e+17 | ESI positive response factor (0.175 µM): 9.03e+17

SMILES: CCSC(=O)N1CCCCCC1 [Molinate]
ESI positive response factor (0.061 µM): 1.56e+16 | ESI positive response factor (0.122 µM): 1.94e+16 | ESI positive response factor (0.244 µM): 2e+16 | ESI positive response factor (0.61 µM): 1.59e+16 | ESI positive response factor (1.22 µM): 1.93e+16

SMILES: CON(C)C(=O)Nc1ccc(Br)c(Cl)c1 [Chlorbromuron]
ESI positive response factor (0.035 µM): 4.74e+16 | ESI positive response factor (0.0875 µM): 4.82e+16 | ESI positive response factor (0.175 µM): 4.62e+16 | ESI positive response factor (0.35 µM): 5.21e+16

SMILES: COC(=O)C1=CCCN(C)C1 [Arecolin]
ESI positive response factor (0.0175 µM): 4.44e+17 | ESI positive response factor (0.035 µM): 4.27e+17 | ESI positive response factor (0.0875 µM): 4.13e+17 | ESI positive response factor (0.175 µM): 3.78e+17 | ESI positive response factor (0.35 µM): 3.77e+17

SMILES: O=P(OCCCl)(OCCCl)OCCCl [Tris(2-chloroethyl) phosphate]
ESI positive response factor (0.0175 µM): 2.68e+18 | ESI positive response factor (0.035 µM): 2.89e+18 | ESI positive response factor (0.0875 µM): 2.72e+18

SMILES: CNC(=O)CSP(=S)(OC)OC [Dimethoate]
ESI positive response factor (0.0175 µM): 5.46e+16 | ESI positive response factor (0.035 µM): 5.3e+16 | ESI positive response factor (0.0875 µM): 5.84e+16 | ESI positive response factor (0.175 µM): 5.04e+16 | ESI positive response factor (0.35 µM): 5.56e+16

SMILES: CN1C(C)(C)CC(O)CC1(C)C [1,2,2,6,6-Pentamethyl-4-piperidinol]
ESI positive response factor (0.0175 µM): 4.91e+17 | ESI positive response factor (0.035 µM): 5.26e+17 | ESI positive response factor (0.0875 µM): 5.02e+17 | ESI positive response factor (0.175 µM): 4.63e+17 | ESI positive response factor (0.35 µM): 4.69e+17 | ESI positive response factor (0.875 µM): 4.18e+17 | ESI positive response factor (1.75 µM): 3.68e+17

SMILES: CN(C)C(=O)Nc1ccc(Cl)cc1 [Monuron]
ESI positive response factor (0.0122 µM): 2.43e+16 | ESI positive response factor (0.0244 µM): 2.85e+16 | ESI positive response factor (0.061 µM): 3.31e+16 | ESI positive response factor (0.122 µM): 3.07e+16 | ESI positive response factor (0.244 µM): 3.26e+16

SMILES: NC(=O)N=C(N)N [Guanylurea]
ESI positive response factor (0.244 µM): 2.7e+15 | ESI positive response factor (0.61 µM): 2.53e+15 | ESI positive response factor (1.22 µM): 2.64e+15

SMILES: CCOP(=S)(OCC)Oc1cc(C)nc(C(C)C)n1 [Diazinon]
ESI positive response factor (0.0175 µM): 3.13e+16 | ESI positive response factor (0.035 µM): 5.67e+16 | ESI positive response factor (0.0875 µM): 3.71e+16 | ESI positive response factor (0.175 µM): 5.13e+16

Now from value to molecule:

ESI positive response factor (0.122 µM): 1.43e+16 | ESI positive response factor (0.244 µM): 1.56e+16 | ESI positive response factor (0.61 µM): 1.43e+16 | ESI positive response factor (1.22 µM): 1.44e+16
SMILES: CC(=O)C1=C(C)C2CC3(C1)C(C)CCC3C2(C)C (configuration not stated) [Methyl cedryl ketone]

ESI positive response factor (0.35 µM): 3.71e+15 | ESI positive response factor (0.875 µM): 5.3e+15 | ESI positive response factor (1.75 µM): 5.19e+15
SMILES: O=C(O)Cc1ccccc1Nc1c(Cl)cccc1Cl [Diclofenac]

ESI positive response factor (0.0175 µM): 5.72e+16 | ESI positive response factor (0.035 µM): 7.07e+16 | ESI positive response factor (0.0875 µM): 6.85e+16 | ESI positive response factor (0.175 µM): 6.12e+16 | ESI positive response factor (0.35 µM): 6.45e+16
SMILES: CCNC(=O)[C@H](C)OC(=O)Nc1ccccc1 [Carbetamid]

ESI positive response factor (0.0175 µM): 2.88e+17 | ESI positive response factor (0.035 µM): 3.52e+17 | ESI positive response factor (0.0875 µM): 3.58e+17 | ESI positive response factor (0.175 µM): 3.13e+17 | ESI positive response factor (0.35 µM): 3.46e+17 | ESI positive response factor (0.875 µM): 3.33e+17
SMILES: COc1cc(Cc2cnc(N)nc2N)cc(OC)c1OC [Trimethoprim]

ESI positive response factor (0.122 µM): 1.45e+16 | ESI positive response factor (0.244 µM): 1.53e+16 | ESI positive response factor (0.61 µM): 1.99e+16
SMILES: COc1ccc2c(c1)c(CC(=O)O)c(C)n2C(=O)c1ccc(Cl)cc1 [Indomethacin]

ESI positive response factor (0.0175 µM): 1.43e+17 | ESI positive response factor (0.035 µM): 1.76e+17 | ESI positive response factor (0.0875 µM): 1.65e+17 | ESI positive response factor (0.175 µM): 1.64e+17 | ESI positive response factor (0.35 µM): 1.6e+17
SMILES: CC(C)NCC(O)COc1ccc(C(=O)O)cc1 (configuration not stated) [Bisoprolol-M3]

ESI positive response factor (0.0175 µM): 2.75e+16 | ESI positive response factor (0.035 µM): 4.33e+16 | ESI positive response factor (0.0875 µM): 4.27e+16 | ESI positive response factor (0.175 µM): 3.56e+16 | ESI positive response factor (0.35 µM): 3.92e+16 | ESI positive response factor (0.875 µM): 4.05e+16
SMILES: Nc1nc(N)c2nc(CO)cnc2n1 [2,4-Diamino-6-(hydroxymethyl)pteridine]

ESI positive response factor (0.0175 µM): 6.5e+16 | ESI positive response factor (0.035 µM): 9.26e+16 | ESI positive response factor (0.0875 µM): 8.81e+16 | ESI positive response factor (0.175 µM): 8.23e+16 | ESI positive response factor (0.35 µM): 9.32e+16 | ESI positive response factor (0.875 µM): 8.86e+16
SMILES: CN=C(NC#N)NCCSCc1nc[nH]c1C [Cimetidine]

ESI positive response factor (0.0875 µM): 7.22e+14 | ESI positive response factor (0.35 µM): 3.87e+15 | ESI positive response factor (0.875 µM): 4.7e+15 | ESI positive response factor (1.75 µM): 4.96e+15
SMILES: O=S(=O)(O)c1ccc2nc(-c3ccccc3)[nH]c2c1 [2-Phenyl-5-benzimidazole]

ESI positive response factor (0.035 µM): 1.78e+16 | ESI positive response factor (0.0875 µM): 2.14e+16 | ESI positive response factor (0.175 µM): 2.26e+16 | ESI positive response factor (0.35 µM): 2.46e+16 | ESI positive response factor (0.875 µM): 2.38e+16
SMILES: NC(=O)c1c(Cl)cccc1Cl [2,6-Dichlorbenzamid]

ESI positive response factor (0.0175 µM): 5.41e+17 | ESI positive response factor (0.035 µM): 5.89e+17 | ESI positive response factor (0.0875 µM): 5.34e+17
SMILES: CCOC(=O)NCCOc1ccc(Oc2ccccc2)cc1 [Fenoxycarb]

ESI positive response factor (0.175 µM): 2.66e+15 | ESI positive response factor (0.35 µM): 3.31e+15 | ESI positive response factor (0.875 µM): 3.41e+15 | ESI positive response factor (1.75 µM): 3.53e+15
SMILES: Cc1cc2nc3c(=O)[nH]c(=O)nc-3n(CC(O)C(O)C(O)CO)c2cc1C (configuration not stated) [Riboflavin]

ESI positive response factor (0.0175 µM): 8.94e+16 | ESI positive response factor (0.035 µM): 1.09e+17 | ESI positive response factor (0.0875 µM): 1.15e+17 | ESI positive response factor (0.175 µM): 9.69e+16 | ESI positive response factor (0.35 µM): 1.08e+17
SMILES: CCC1(c2ccccc2)C(=O)NCNC1=O [Primidone]

ESI positive response factor (0.035 µM): 7.96e+15 | ESI positive response factor (0.0875 µM): 1.11e+16 | ESI positive response factor (0.175 µM): 1.18e+16 | ESI positive response factor (0.35 µM): 1.37e+16
SMILES: c1ccc2[nH]nnc2c1 [1H-Benzotriazol]

ESI positive response factor (0.0175 µM): 1.75e+17 | ESI positive response factor (0.035 µM): 1.81e+17 | ESI positive response factor (0.0875 µM): 1.82e+17 | ESI positive response factor (0.175 µM): 1.75e+17 | ESI positive response factor (0.35 µM): 1.8e+17
SMILES: CC(C)NCC(O)COc1ccc(CC(N)=O)cc1 (configuration not stated) [Atenolol]

— the supplement of paper PMC10326909
